{"source": "ChEMBL document CHEMBL4017548", "about": "“Molecular Hybridization of Potent and Selective γ-Hydroxybutyric Acid (GHB) Ligands: Design, Synthesis, Binding Studies, and Molecular Modeling of Novel 3-Hydroxycyclopent-1-enecarboxylic Acid (HOCPCA) and trans-γ-Hydroxycrotonic Acid (T-HCA) Analogs” (J Med Chem, 2017)", "assay": "Displacement of [3H]NCS-382 from GHB binding site in Sprague-Dawley rat brain synaptosomal membranes after 1 hr by scintillation counting method", "data": [{"smiles": "O=C(O)C1=CCCC1", "values": [{"measurement": "Ki", "value": 31, "unit": "µM"}, {"measurement": "pKi", "value": 4.51}]}, {"smiles": "O=C(O)C#CCO", "values": [{"measurement": "Ki", "value": 4.3, "unit": "µM"}, {"measurement": "pKi", "value": 5.5}]}, {"smiles": "O=C(O)C1=CC(O)CC1", "note": "(stereo not drawn)", "values": [{"measurement": "Ki", "value": "0.13 to 0.16", "unit": "µM"}, {"measurement": "pKi", "value": 6.89}]}, {"smiles": "O=C(O)/C=C/C1(O)CCCCC1", "values": [{"measurement": "Ki", "value": 4.3, "unit": "µM"}, {"measurement": "pKi", "value": 5.37}]}, {"smiles": "O=C(O)C1=C(c2ccc(Cl)cc2)C(O)CC1", "note": "(stereo not drawn)", "values": [{"measurement": "Ki", "value": 70, "unit": "µM"}, {"measurement": "pKi", "value": 4.16}]}, {"smiles": "O=C(O)C#CC1(O)CCC1", "values": [{"measurement": "Ki", "value": 1.6, "unit": "µM"}, {"measurement": "pKi", "value": 5.78}]}, {"smiles": "COc1ccc(C2=C(C(=O)O)CCC2O)cc1", "note": "(stereo not drawn)", "values": [{"measurement": "Ki", "value": "> 300", "unit": "µM"}]}, {"smiles": "O=C(O)C1=CC(c2ccccc2)CC1", "note": "(stereo not drawn)", "values": [{"measurement": "Ki", "value": 16, "unit": "µM"}, {"measurement": "pKi", "value": 4.8}]}, {"smiles": "O=C(O)C1=CC(c2ccc(OCc3ccccc3)cc2)CC1", "note": "(stereo not drawn)", "values": [{"measurement": "Ki", "value": 1.6, "unit": "µM"}, {"measurement": "pKi", "value": 5.77}]}, {"smiles": "CCC1=C(C(=O)O)CCC1O", "note": "(stereo not drawn)", "values": [{"measurement": "Ki", "value": "> 300", "unit": "µM"}]}, {"smiles": "O=C(O)C1=CC(c2ccc(-c3ccccc3)cc2)CC1", "note": "(stereo not drawn)", "values": [{"measurement": "Ki", "value": 3.2, "unit": "µM"}, {"measurement": "pKi", "value": 5.49}]}, {"smiles": "O=C(O)C1=C[C@H](O)CC1", "values": [{"measurement": "Ki", "value": 0.11, "unit": "µM"}]}, {"smiles": "O=C(O)[C@@H]1CC[C@@](O)(c2ccccc2)C1", "values": [{"measurement": "Ki", "value": 53, "unit": "µM"}, {"measurement": "pKi", "value": 4.28}]}, {"smiles": "O=C(O)C1=C(c2ccccc2)C(O)CC1", "note": "(stereo not drawn)", "values": [{"measurement": "Ki", "value": 48, "unit": "µM"}, {"measurement": "pKi", "value": 4.32}]}, {"smiles": "O=C(O)C#CC1(O)CCCCC1", "values": [{"measurement": "Ki", "value": 7.7, "unit": "µM"}, {"measurement": "pKi", "value": 5.12}]}, {"smiles": "O=C(O)C1=C(Cc2ccccc2)C(O)CC1", "note": "(stereo not drawn)", "values": [{"measurement": "Ki", "value": 38, "unit": "µM"}, {"measurement": "pKi", "value": 4.43}]}, {"smiles": "O=C(O)C1CC(O)C1", "note": "(stereo not drawn)", "values": [{"measurement": "Ki", "value": 70, "unit": "µM"}, {"measurement": "pKi", "value": 4.16}]}, {"smiles": "Cc1ccc(C2=C(C(=O)O)CCC2O)cc1", "note": "(stereo not drawn)", "values": [{"measurement": "Ki", "value": 157, "unit": "µM"}, {"measurement": "pKi", "value": 3.81}]}, {"smiles": "O=C(O)/C=C/C1(O)CCCC1", "values": [{"measurement": "Ki", "value": 3.1, "unit": "µM"}, {"measurement": "pKi", "value": 5.51}]}, {"smiles": "O=C(O)C1=C(c2ccc(Cl)c(Cl)c2)C(O)CC1", "note": "(stereo not drawn)", "values": [{"measurement": "Ki", "value": 62, "unit": "µM"}, {"measurement": "pKi", "value": 4.21}]}, {"smiles": "O=C(O)/C=C/C(O)c1ccc(OCc2ccccc2)cc1", "note": "(stereo not drawn)", "values": [{"measurement": "Ki", "value": 0.043, "unit": "µM"}, {"measurement": "pKi", "value": 7.43}]}, {"smiles": "COc1cccc(CC2=C(C(=O)O)CCC2O)c1", "note": "(stereo not drawn)", "values": [{"measurement": "Ki", "value": 46, "unit": "µM"}, {"measurement": "pKi", "value": 4.43}]}, {"smiles": "O=C(O)C1=CC(c2ccccc2O)CC1", "note": "(stereo not drawn)", "values": [{"measurement": "Ki", "value": 4.6, "unit": "µM"}, {"measurement": "pKi", "value": 5.34}]}, {"smiles": "CC1=C(C(=O)O)CCC1O", "note": "(stereo not drawn)", "values": [{"measurement": "Ki", "value": 80, "unit": "µM"}, {"measurement": "pKi", "value": 4.1}]}, {"smiles": "O=C(O)C1=C[C@@H](O)CC1", "values": [{"measurement": "Ki", "value": 1.4, "unit": "µM"}]}, {"smiles": "O=C(O)C#CC1(O)CCCC1", "values": [{"measurement": "Ki", "value": 2.7, "unit": "µM"}, {"measurement": "pKi", "value": 5.57}]}, {"smiles": "O=C(O)[C@@H]1CC[C@@](O)(c2ccc(-c3ccccc3)cc2)C1", "values": [{"measurement": "Ki", "value": 0.51, "unit": "µM"}, {"measurement": "pKi", "value": 6.29}]}, {"smiles": "O=C(O)C1CCC(O)C1", "note": "(stereo not drawn)", "values": [{"measurement": "Ki", "value": 20, "unit": "µM"}, {"measurement": "pKi", "value": 4.71}]}, {"smiles": "O=C(O)/C=C/C(O)c1ccc(OCc2ccc(Br)cc2)cc1", "note": "(stereo not drawn)", "values": [{"measurement": "Ki", "value": 0.023, "unit": "µM"}, {"measurement": "pKi", "value": 7.64}]}, {"smiles": "O=C(O)/C=C/C1(O)CCC1", "values": [{"measurement": "Ki", "value": 3.5, "unit": "µM"}, {"measurement": "pKi", "value": 5.47}]}, {"smiles": "C=CCC1=C(C(=O)O)CCC1O", "note": "(stereo not drawn)", "values": [{"measurement": "Ki", "value": "> 300", "unit": "µM"}]}, {"smiles": "O=C(O)/C=C/C(O)c1ccc(CCc2ccccc2)cc1", "note": "(racemic)", "values": [{"measurement": "Ki", "value": 0.042, "unit": "µM"}, {"measurement": "pKi", "value": 7.39}]}, {"smiles": "O=C(O)/C=C/C(O)c1ccc(Cc2ccccc2)cc1", "note": "(racemic)", "values": [{"measurement": "Ki", "value": 0.042, "unit": "µM"}, {"measurement": "pKi", "value": 7.38}]}, {"smiles": "O=C(O)C#CC(O)c1ccc(OCc2ccccc2)cc1", "note": "(racemic)", "values": [{"measurement": "Ki", "value": 1.6, "unit": "µM"}, {"measurement": "pKi", "value": 5.8}]}, {"smiles": "O=C(O)/C=C/C(O)c1ccc(-c2ccccc2)cc1", "note": "(racemic)", "values": [{"measurement": "Ki", "value": 0.075, "unit": "µM"}, {"measurement": "pKi", "value": 7.14}]}, {"smiles": "O=C(O)C#CC(O)Cc1ccccc1", "note": "(racemic)", "values": [{"measurement": "Ki", "value": 3.5, "unit": "µM"}, {"measurement": "pKi", "value": 5.45}]}, {"smiles": "O=C(O)[C@@H]1CCC[C@@H](O)C1", "note": "(relative stereo)", "values": [{"measurement": "Ki", "value": 28, "unit": "µM"}, {"measurement": "pKi", "value": 4.55}]}, {"smiles": "O=C(O)[C@H]1CCC[C@@H](O)C1", "note": "(relative stereo)", "values": [{"measurement": "Ki", "value": 35, "unit": "µM"}, {"measurement": "pKi", "value": 4.45}]}, {"smiles": "O=C(O)[C@]12CC[C@@H](O)[C@H]1C2", "note": "(relative stereo)", "values": [{"measurement": "Ki", "value": "> 100", "unit": "µM"}]}, {"smiles": "O=C(O)/C=C/C(O)c1ccc(Cc2ccccc2)cc1", "note": "(single isomer, unassigned; (+))", "values": [{"measurement": "Ki", "value": 0.03, "unit": "µM"}, {"measurement": "pKi", "value": 7.47}]}, {"smiles": "O=C(O)/C=C/C(O)c1ccc(Cc2ccccc2)cc1", "note": "(stereo in doubt; (-)-9e)", "values": [{"measurement": "Ki", "value": 1.16, "unit": "µM"}, {"measurement": "pKi", "value": 5.97}]}, {"smiles": "O=C(O)CCCO", "note": "[OXYBATE]", "values": [{"measurement": "Ki", "value": 3.6, "unit": "µM"}, {"measurement": "pKi", "value": 5.44}]}]}
